Here are results for 22 compounds from patent US20230024302A1, “2,3,5-TRISUBSTITUTED PYRAZOLO[1,5-A]PYRIMIDINE COMPOUNDS” (Arcus Biosciences, Inc., priority 2019, published 2023).

The pIC50 is −log10 of the IC50, conventionally taken in molar units.

Experiment [1] deals with T1, PI3Kγ (Homo sapiens, UniProt P48736).
T1 construct: host or cells: THP-1
The experiment in a line: PI3Kγ cellular assay in THP-1 cells (AKT pS473 AlphaLISA). The format is cell-based. Summed up: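 Serum-starved THP-1 cells (1.8×10^5/well, serum-free DMEM) treated with compounds from 4 nM to 30 μM in 2% DMSO, then stimulated and lysed.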
A general note: In Alpha technology, singlet oxygen from a donor bead excites a nearby acceptor bead.

The target in experiment [2] is T2, PI3Kγ (p120γ) (Homo sapiens, UniProt P48736).
T2 construct: purchased Promega V1761
T2 sequence (P48736 whole entry): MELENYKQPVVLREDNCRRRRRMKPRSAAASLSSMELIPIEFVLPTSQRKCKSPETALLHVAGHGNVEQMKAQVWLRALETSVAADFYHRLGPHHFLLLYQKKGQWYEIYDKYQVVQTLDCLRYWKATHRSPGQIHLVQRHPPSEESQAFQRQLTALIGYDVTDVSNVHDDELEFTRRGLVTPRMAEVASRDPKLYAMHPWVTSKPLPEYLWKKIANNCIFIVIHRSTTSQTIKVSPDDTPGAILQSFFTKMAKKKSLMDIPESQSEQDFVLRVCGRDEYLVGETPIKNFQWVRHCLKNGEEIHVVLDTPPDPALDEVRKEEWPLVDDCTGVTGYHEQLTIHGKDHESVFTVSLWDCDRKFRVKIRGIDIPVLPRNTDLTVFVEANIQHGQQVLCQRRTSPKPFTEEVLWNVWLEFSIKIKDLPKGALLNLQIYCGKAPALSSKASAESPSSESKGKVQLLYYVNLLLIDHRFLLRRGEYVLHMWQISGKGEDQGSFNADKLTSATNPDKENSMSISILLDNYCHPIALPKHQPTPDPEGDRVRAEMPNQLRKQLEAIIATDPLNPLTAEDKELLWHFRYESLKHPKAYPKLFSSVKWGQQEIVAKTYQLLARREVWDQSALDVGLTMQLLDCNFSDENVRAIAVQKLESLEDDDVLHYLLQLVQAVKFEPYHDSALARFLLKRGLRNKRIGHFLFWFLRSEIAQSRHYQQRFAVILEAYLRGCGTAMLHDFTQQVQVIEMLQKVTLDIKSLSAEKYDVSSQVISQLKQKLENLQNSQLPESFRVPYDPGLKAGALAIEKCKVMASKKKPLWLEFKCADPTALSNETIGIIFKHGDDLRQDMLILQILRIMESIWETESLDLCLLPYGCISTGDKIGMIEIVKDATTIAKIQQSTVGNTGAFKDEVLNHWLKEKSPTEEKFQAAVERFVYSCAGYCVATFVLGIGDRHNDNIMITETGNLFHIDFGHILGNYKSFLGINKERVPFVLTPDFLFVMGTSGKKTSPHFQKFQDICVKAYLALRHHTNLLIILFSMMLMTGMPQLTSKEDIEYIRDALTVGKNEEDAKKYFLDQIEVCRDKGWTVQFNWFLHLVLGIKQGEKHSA
The experiment is described as follows: Inhibition of PI3K kinase activity (ADP Glo), PI3Kγ. To be noted: read-out: biochemical potency (PI3Kγ IC50). Summed up:
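Recombinant p120γ (8 nM, 2× stock) was preincubated with compound for 1 h at rt in HEPES pH 7.4, NaCl, MgCl2 and 0.05% BSA. Reaction was started with PIP2 (0.1 mg/ml, 2×) and ATP (50 μM, 2×) and ran 60 min at rt. ADP formed was read by ADP-Glo luminescence, and IC50 came from a 4-parameter fit.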
For orientation: ADP-Glo first removes unused ATP, then detects ADP through luciferase.

[3] abbreviates: Table 2, rhMCP-1 stimulated AKT pS473, read-out: cellular potency (PI3Kγ IC50).
Where [4] appears, read: Table 1, rhMCP-1 stimulated AKT pS473, read-out: cellular potency (PI3Kγ IC50).
Where [5] appears, read: Table 3, rhMCP-1 stimulated AKT pS473, read-out: cellular potency (PI3Kγ IC50).
[6] abbreviates: Table 6, rhMCP-1 stimulated AKT pS473, read-out: cellular potency (PI3Kγ IC50).

pIC50: −log10 of the molar value. Like-named read-outs stand apart in the source and are kept apart here. A value given as a limit tells only on which side of the number the result lay.

T1 sequence (P48736 whole entry): as above

Consider `Cc1cc(-c2ccn3nc(N)c(C(=O)N[C@@H]4CCOc5ccccc54)c3n2)cc2c1C(=O)N([C@@H](C)C1CC1)C2` [Example 285], for which the pIC50 in experiment [1] (setting [3]) is under 6.00; in experiment [2] (Table 2, p120γ) it was over 7.00.

Consider `CCS(=O)(=O)c1cc(-c2ccn3nc(N)c(C(=O)NC4CC4)c3n2)cc2c1C(=O)N([C@@H](C)C1CC1)C2` [Example 133, 2-Amino-N-cyclopropyl-5-{2-[(1S)-1-cyclopropylethyl]-7-(ethanesulfonyl)-1-oxo-2,3-dihydro-1H-isoindol-5-yl}pyrazolo[1,5-a]pyrimidine-3-carboxamide], for which the pIC50 in experiment [1] (setting [4]) is over 7.00; in experiment [2] (Table 1, p120γ), over 7.00.

As to `Cc1cc(-c2ccn3nc(N)c(C(=O)Nc4cnn(CC(C)(C)O)c4)c3n2)cc2c1C(=O)N([C@@H](C)C1CC1)C2` [Example 17, 2-Amino-5-{2-[(1S)-1-cyclopropylethyl]-7-methyl-1-oxo-2,3-dihydro-1H-isoindol-5-yl}-N-[1-(2-hydroxy-2-methylpropyl)-1H-pyrazol-4-yl]pyrazolo[1,5-a]pyrimidine-3-carboxamide], the pIC50 was over 7.00 in experiment [1] (setting [4]) and over 7.00 in experiment [2] (Table 1, p120γ).

For `C[C@@H](C1CC1)N1Cc2cc(-c3ccn4nc(N)c(C(=O)N[C@H]5C[C@](C)(O)C5)c4n3)cc(NS(C)(=O)=O)c2C1=O` [Example 82, 2-Amino-5-{2-[(1S)-1-cyclopropylethyl]-7-methanesulfonamido-1-oxo-2,3-dihydro-1H-isoindol-5-yl}-N-[trans-3-hydroxy-3-methylcyclobutyl]pyrazolo[1,5-a]pyrimidine-3-carboxamide], the pIC50 in experiment [1] (setting [4]) was over 7.00; in experiment [2] (Table 1, p120γ) it was over 7.00.

As to `C[C@@H](C1CC1)N1Cc2cc(-c3ccn4nc(N)c(C(=O)N[C@@H]5CCC[C@H](N)C5)c4n3)cc(C(F)(F)F)c2C1=O` [Example 358], the pIC50 in experiment [1] (setting [5]) was 6.00 to 7.00; in experiment [2] (Table 3, p120γ), over 7.00.

As for `C[C@@H](C1CC1)N1Cc2cc(-c3ccn4nc(N)c(C(=O)NCCCO)c4n3)cc(C(F)(F)F)c2C1=O` [Example 52, 2-[(S)-1-Cyclopropylethyl]-5-{2-amino-3-[(3-hydroxypropylamino)carbonyl]-1,4,7a-triaza-5-indenyl}-7-(trifluoromethyl)-1-isoindolinone], the pIC50 in experiment [1] (setting [4]) is over 7.00; in experiment [2] (Table 1, p120γ) it was over 7.00.

As to `C[C@@H](C1CC1)N1Cc2cc(-c3ccn4nc(N)c(C(=O)NC5CC5)c4n3)cc(C(F)(F)F)c2C1=O` [Example 349], the negative-log IC50 (pIC50) is 6.00 to 7.00 in experiment [1] (setting [5]) and over 7.00 in experiment [2] (Table 3, p120γ).

In the case of `C[C@@H](C1CC1)N1Cc2cc(-c3ccn4nc(N)c(C(=O)N[C@@H](CO)C5CC5)c4n3)cc(OC(F)(F)F)c2C1=O` [Example 26, 2-Amino-N-[(1R)-1-cyclopropyl-2-hydroxyethyl]-5-{2-[(1S)-1-cyclopropylethyl]-1-oxo-7-(trifluoromethoxy)-2,3-dihydro-1H-isoindol-5-yl}pyrazolo[1,5-a]pyrimidine-3-carboxamide], the negative-log IC50 (pIC50) in experiment [1] (setting [4]) was over 7.00; in experiment [2] (Table 1, p120γ) it was over 7.00.

Turning to `C[C@@H](C1CC1)N1Cc2cc(-c3ccn4nc(N)c(C(=O)NC5CC5)c4n3)cc(NS(=O)(=O)N3CCOCC3)c2C1=O` [Example 409], the pIC50 is 6.00 to 7.00 in experiment [1] (setting [6]) and over 7.00 in experiment [2] (Table 6, p120γ).

On to `C[C@@H](C1CC1)N1Cc2cc(-c3ccn4nc(N)c(C(=O)N[C@H]5CNC[C@@H]5O)c4n3)cc(C(F)(F)F)c2C1=O` [Example 359], for which the pIC50 in experiment [1] (setting [5]) was under 6.00; in experiment [2] (Table 3, p120γ), over 7.00.

As for `C[C@@H](C1CC1)N1Cc2cc(-c3ccn4nc(N)c(C(=O)NC5CC5)c4n3)cc(C(C)(C)O)c2C1=O` [Example 170, 2-Amino-N-cyclopropyl-5-{2-[(1S)-1-cyclopropylethyl]-7-(2-hydroxypropan-2-yl)-1-oxo-2,3-dihydro-1H-isoindol-5-yl}pyrazolo[1,5-a]pyrimidine-3-carboxamide], the pIC50 in experiment [1] (setting [4]) is over 7.00; in experiment [2] (Table 1, p120γ), over 7.00.

Regarding `C[C@@H](C1CC1)N1Cc2cc(-c3ccn4nc(N)c(C(=O)NC5(C)COC5)c4n3)cc(NS(C)(=O)=O)c2C1=O` [Example 79, 2-Amino-5-{2-[(1S)-1-cyclopropylethyl]-7-methanesulfonamido-1-oxo-2,3-dihydro-1H-isoindol-5-yl}-N-(3-methyloxetan-3-yl)pyrazolo[1,5-a]pyrimidine-3-carboxamide], the negative logarithm of the IC50 (pIC50) in experiment [1] (setting [4]) was over 7.00; in experiment [2] (Table 1, p120γ), over 7.00.

For `Cc1cc(-c2ccn3nc(N)c(C(=O)NC4CC45CC5)c3n2)cc2c1C(=O)N([C@@H](C)C1CC1)C2` (some centres unmarked) [Example 277], the negative-log IC50 (pIC50) in experiment [1] (setting [3]) is 6.00 to 7.00; in experiment [2] (Table 2, p120γ) it was over 7.00.

In the case of `C[C@@H](C1CC1)N1Cc2cc(-c3ccn4nc(N)c(C(=O)NC[C@H]5C[C@H](O)C5)c4n3)cc(NS(C)(=O)=O)c2C1=O` [Example 85, 2-Amino-5-{2-[(1S)-1-cyclopropylethyl]-7-methanesulfonamido-1-oxo-2,3-dihydro-1H-isoindol-5-yl}-N-{[trans-3-hydroxycyclobutyl]methyl}pyrazolo[1,5-a]pyrimidine-3-carboxamide], the negative logarithm of the IC50 (pIC50) is over 7.00 in experiment [1] (setting [4]) and over 7.00 in experiment [2] (Table 1, p120γ).

On to `C[C@@H](C1CC1)N1Cc2cc(-c3ccn4nc(N)c(C(=O)NC(C)(C)C(N)=O)c4n3)cc(NS(C)(=O)=O)c2C1=O` [Example 373], for which the pIC50 in experiment [1] (AKT pS473, read-out: cellular potency (PI3Kγ IC50)) was 6.00 to 7.00; in experiment [2], over 7.00.

Turning to `Cc1cc(-c2ccn3nc(N)c(C(=O)N[C@@H]4c5ccccc5C[C@@H]4O)c3n2)cc2c1C(=O)N([C@@H](C)C1CC1)C2` [Example 240], the pIC50 is 6.00 to 7.00 in experiment [1] (setting [3]) and over 7.00 in experiment [2] (Table 2, p120γ).

For `Cc1cc(-c2ccn3nc(N)c(C(=O)NC4COC4)c3n2)cc2c1C(=O)N(C(C)(C)CO)C2` [Example 315], the pIC50 is 6.00 to 7.00 in experiment [1] (setting [3]) and over 7.00 in experiment [2] (Table 2, p120γ).

Consider `Cc1ccncc1NC(=O)c1c(N)nn2ccc(-c3cc4c(c(OC(F)(F)F)c3)C(=O)N([C@@H](C)C3CC3)C4)nc12` [Example 47, (S)-2-Amino-5-(2-(1-cyclopropylethyl)-1-oxo-7-(trifluoromethoxy)isoindolin-5-yl)-N-(4-methylpyridin-3-yl)pyrazolo[1,5-a]pyrimidine-3-carboxamide], for which the pIC50 is over 7.00 in experiment [1] (setting [4]) and over 7.00 in experiment [2] (Table 1, p120γ).

Consider `Cc1cc(-c2ccn3nc(N)c(C(=O)N[C@H]4CCCC[C@@H]4O)c3n2)cc2c1C(=O)N([C@@H](C)C1CC1)C2` [Example 254], for which the pIC50 in experiment [1] (setting [3]) is 6.00 to 7.00; in experiment [2] (Table 2, p120γ), over 7.00.

Consider `CC(C)c1cc(-c2ccn3nc(N)c(C(=O)NC4CC4)c3n2)cc2c1C(=O)N([C@@H](C)C1CC1)C2` [Example 169, 2-Amino-N-cyclopropyl-5-{2-[(1S)-1-cyclopropylethyl]-1-oxo-7-(propan-2-yl)-2,3-dihydro-1H-isoindol-5-yl}pyrazolo[1,5-a]pyrimidine-3-carboxamide], for which the negative-log IC50 (pIC50) in experiment [1] (setting [4]) was over 7.00; in experiment [2] (Table 1, p120γ), over 7.00.

Consider `C[C@@H](C1CC1)N1Cc2cc(-c3ccn4nc(N)c(C(=O)Nc5ccnc(C(F)(F)F)c5)c4n3)cc(OC(F)(F)F)c2C1=O` [Example 428], for which the negative-log IC50 (pIC50) in experiment [1] (setting [6]) was under 6.00; in experiment [2] (Table 6, p120γ) it was over 7.00.

In the case of `Cc1cc(-c2ccn3nc(N)c(C(=O)N[C@@H]4CCC[C@H]4O)c3n2)cc2c1C(=O)N([C@@H](C)C1CC1)C2` [Example 8, 2-Amino-5-{2-[(1S)-1-cyclopropylethyl]-7-methyl-1-oxo-2,3-dihydro-1H-isoindol-5-yl}-N-[(1R,2R)-2-hydroxycyclopentyl]pyrazolo[1,5-a]pyrimidine-3-carboxamide], the pIC50 was over 7.00 in experiment [1] (setting [4]) and over 7.00 in experiment [2] (Table 1, p120γ).
